According to PubChem BioAssay (NCI):
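All cell lines were grown in 96-well plates and treated with compound for 48 hours. GI50 = concentration required for 50% inhibition of growth. TGI: total growth inhibition.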

Key:
Assay in all cases: inhibition of tumour cell growth, NCI panel, 48 h
[1] = tested on: A498 renal
[2] = tested on: CAKI-1 renal
[3] = tested on: CCRF-CEM leukemia
[4] = tested on: DU-145 prostate
[5] = tested on: HOP-92 NSCLC
[6] = tested on: HS 578T breast
[7] = tested on: HT29 colon
[8] = tested on: SK-OV-3 ovarian
[9] = tested on: T-47D breast
[10] = tested on: UACC-62 melanoma

Row | SMILES | GI50 [1] | TGI [1] | GI50 [2] | TGI [2] | GI50 [3] | TGI [3] | GI50 [4] | TGI [4] | GI50 [5] | TGI [5] | GI50 [6] | TGI [6] | GI50 [7] | TGI [7] | GI50 [8] | TGI [8] | GI50 [9] | TGI [9] | GI50 [10] | TGI [10]
1 | NC(=O)c1ccccc1NC(=O)c1ccccc1Cl | 56200 nM | > 100 µM | > 100 µM | > 100 µM | > 100 µM | > 100 µM | > 100000 nM | > 100 µM | 60700 nM | > 100 µM | > 100000 nM | > 100 µM | > 100000 nM | > 100 µM | > 100000 nM | > 100 µM | > 100000 nM | > 100 µM | > 100000 nM | > 100 µM
2 | Cc1ccc2nc(-c3ccc(N)c4ccccc34)[nH]c2c1 | 95.3 nM | 16.7 µM | 0.405 µM | 5.62 µM | 0.0382 µM | 2.1 µM | 437 nM | 24.8 µM | 2620 nM | 49.1 µM | 263 nM | 32.4 µM | 361 nM |  | 283 nM | > 46.7 µM | 9100 nM | > 100 µM | < 14.7 nM | 17.2 µM
3 | Nc1ccc(C(OC(=O)c2cc3ccccc3c(Cc3c(O)c(C(=O)OC(c4ccc(N)cc4)(c4ccc(N)cc4)c4ccc(N)cc4)cc4ccccc34)c2O)(c2ccc(N)cc2)c2ccc(N)cc2)cc1 | 548 nM | 5.25 µM | 13.6 µM | > 100 µM | 3.03 µM | > 100 µM | 2180 nM | 15 µM | 1150 nM | 5.86 µM | 201 nM | 0.867 µM | 1790 nM | 11.6 µM | 2870 nM | 14.5 µM | 405 nM | 18.9 µM | 1980 nM | 11.9 µM
4 | O=C(CNc1ccc2c(=S)c3ccccc3[nH]c2c1)Nc1ccccc1-c1ccccc1NC(=O)CNc1ccc2c(=S)c3ccccc3[nH]c2c1 |  | 55.6 µM |  | 75.6 µM |  | 22.8 µM |  | 37.4 µM |  | 51.2 µM |  | > 77.7 µM |  | 48.4 µM |  | 48.5 µM |  | > 50.1 µM |  | 44.3 µM
5 | c1ccc(B2OCC(C3OB(c4ccccc4)OC4COB(c5ccccc5)OC43)O2)cc1 (centres undefined) |  | > 100 µM |  | > 100 µM |  | > 100 µM |  | > 100 µM |  | > 100 µM |  | > 100 µM |  | > 100 µM |  | > 100 µM |  | > 100 µM |  | > 100 µM
6 | Nc1c(C(=O)N/N=C/c2ccc(-c3cc(Cl)c(Cl)cc3Cl)o2)cnn1-c1ccnc2c(C(F)(F)F)cccc12 | 3890 nM | 37.7 µM | 4.21 µM | > 100 µM | 3.9 µM | > 100 µM | 3560 nM | > 100 µM | 2570 nM | 7 µM | 5040 nM | > 100 µM | 2730 nM | 28 µM | 4810 nM | 73 µM | 2930 nM | > 100 µM | 3940 nM | > 100 µM
